Molecules are shown by their SMILES. The source made the active and inactive calls. How the calls were made is not given here.

The subject of the data set is CCRIS mutagenicity, Ames/micronucleus/aberration tests. In words: CCRIS mutagenicity studies.
The mark [1] stands for this setting: Test System: AMES SALMONELLA TYPHIMURIUM, Strain/Indicator: TA98, Metabolic Activation: HAMSTER, LIVER, S-9, AROCLOR 1254, Method: PREINCUBATION
[2] abbreviates: Test System: AMES SALMONELLA TYPHIMURIUM, Strain/Indicator: TA98, Metabolic Activation: NONE, Method: PREINCUBATION
Where [3] appears, read: Test System: AMES SALMONELLA TYPHIMURIUM, Strain/Indicator: TA98, Metabolic Activation: RAT, LIVER, S-9, AROCLOR 1254, Method: PREINCUBATION
Where [4] appears, read: Test System: AMES SALMONELLA TYPHIMURIUM, Strain/Indicator: TA100, Metabolic Activation: HAMSTER, LIVER, S-9, AROCLOR 1254, Method: PREINCUBATION
Where [5] appears, read: Test System: AMES SALMONELLA TYPHIMURIUM, Strain/Indicator: TA100, Metabolic Activation: NONE, Method: PREINCUBATION
Where [6] appears, read: Test System: AMES SALMONELLA TYPHIMURIUM, Strain/Indicator: TA100, Metabolic Activation: RAT, LIVER, S-9, AROCLOR 1254, Method: PREINCUBATION
Setting [7] is: Test System: AMES SALMONELLA TYPHIMURIUM, Strain/Indicator: TA1535, Metabolic Activation: HAMSTER, LIVER, S-9, AROCLOR 1254, Method: PREINCUBATION
Where [8] appears, read: Test System: AMES SALMONELLA TYPHIMURIUM, Strain/Indicator: TA1535, Metabolic Activation: NONE, Method: PREINCUBATION
[9] abbreviates: Test System: AMES SALMONELLA TYPHIMURIUM, Strain/Indicator: TA1535, Metabolic Activation: RAT, LIVER, S-9, AROCLOR 1254, Method: PREINCUBATION
Where [10] appears, read: Test System: AMES SALMONELLA TYPHIMURIUM, Strain/Indicator: TA1537, Metabolic Activation: HAMSTER, LIVER, S-9, AROCLOR 1254, Method: PREINCUBATION
[11] abbreviates: Test System: AMES SALMONELLA TYPHIMURIUM, Strain/Indicator: TA1537, Metabolic Activation: NONE, Method: PREINCUBATION
[12] abbreviates: Test System: AMES SALMONELLA TYPHIMURIUM, Strain/Indicator: TA1537, Metabolic Activation: RAT, LIVER, S-9, AROCLOR 1254, Method: PREINCUBATION
[13] abbreviates: Test System: AMES SALMONELLA TYPHIMURIUM, Strain/Indicator: TA98, Metabolic Activation: NONE, Method: STANDARD PLATE.
Where [14] appears, read: Test System: AMES SALMONELLA TYPHIMURIUM, Strain/Indicator: TA100, Metabolic Activation: NONE, Method: STANDARD PLATE.

On to `COc1ccc(OC)cc1`, for which the mutagenic call is “inactive; negative” under setting [1]; “inactive; negative” under setting [2]; “inactive; negative” under setting [3]; “inactive; negative” under setting [4]; “inactive; negative” under setting [5]; “inactive; negative” under setting [6]. Also, the mutagenic call is “inactive; negative” under setting [7]; “inactive; negative” under setting [8]; “inactive; negative” under setting [9]; “inactive; negative” under setting [10]; “inactive; negative” under setting [11]; “inactive; negative” under setting [12].
`ClC(Cl)(Cl)C(Cl)(Cl)Cl`: the mutagenic call (End Point: IN VITRO CHROMOSOMAL ABERRATIONS, Test System: CHINESE HAMSTER OVARY CELLS, Metabolic Activation: RAT, LIVER, S-9, AROCLOR 1254) is “inactive; negative; precipitation occurred at all doses”; the mutagenic call under setting [1] is “inactive; negative”; the mutagenic call under setting [2] is “inactive; negative”; the mutagenic call under setting [3] is “inactive; negative”; the mutagenic call under setting [4] was “inactive; negative”; the mutagenic call under setting [5] was “inactive; negative”. Besides, the mutagenic call is “inactive; negative” under setting [6]; “inactive; negative” under setting [7]; “inactive; negative” under setting [8]; “inactive; negative” under setting [9]; “inactive; negative” under setting [10]; “inactive; negative” under setting [11]. Besides, the mutagenic call under setting [12] is “inactive; negative”.
In the case of `CN(C)CCCN1c2ccccc2CCc2ccccc21`, the mutagenic call is “inactive; negative” under setting [13]; “inactive; negative” (Test System: AMES SALMONELLA TYPHIMURIUM, Strain/Indicator: TA98, Metabolic Activation: RAT, LIVER, S-9, AROCLOR 1254, Method: STANDARD PLATE); “inactive; negative” under setting [14]; “inactive; negative” (Test System: AMES SALMONELLA TYPHIMURIUM, Strain/Indicator: TA100, Metabolic Activation: RAT, LIVER, S-9, AROCLOR 1254, Method: STANDARD PLATE); “inactive; negative” (Test System: AMES SALMONELLA TYPHIMURIUM, Strain/Indicator: TA1535, Metabolic Activation: NONE, Method: STANDARD PLATE); “inactive; negative” (Test System: AMES SALMONELLA TYPHIMURIUM, Strain/Indicator: TA1535, Metabolic Activation: RAT, LIVER, S-9, AROCLOR 1254, Method: STANDARD PLATE). Besides, the mutagenic call is “inactive; negative” (Test System: AMES SALMONELLA TYPHIMURIUM, Strain/Indicator: TA1537, Metabolic Activation: NONE, Method: STANDARD PLATE) and “inactive; negative” (Test System: AMES SALMONELLA TYPHIMURIUM, Strain/Indicator: TA1537, Metabolic Activation: RAT, LIVER, S-9, AROCLOR 1254, Method: STANDARD PLATE).
For the compound `CC(=O)Nc1nc2c3cccnc3ccc2n1C`, the mutagenic call runs as follows: (Test System: AMES SALMONELLA TYPHIMURIUM, Strain/Indicator: TA98(1,8-DNP6), Metabolic Activation: RAT, LIVER, S-9, Method: STANDARD PLATE) “inactive; negative”; (Test System: AMES SALMONELLA TYPHIMURIUM, Strain/Indicator: TA98(NR), Metabolic Activation: RAT, LIVER, S-9, Method: STANDARD PLATE) “active; positive”; (Test System: AMES SALMONELLA TYPHIMURIUM, Strain/Indicator: TA98, Metabolic Activation: RAT, LIVER, S-9, Method: STANDARD PLATE) “active; positive”; (Test System: AMES SALMONELLA TYPHIMURIUM, Strain/Indicator: TA98, Method: STANDARD PLATE) “active; positive”.
As to `c1ccc2c(c1)CC[C@@H]1CCC[C@@H]3O[C@]213`, the mutagenic call was “inactive; negative” under setting [13] and “inactive; negative” under setting [14].
Take `CCCCOc1ccc(C=Nc2ccc(CC)cc2)cc1`: the mutagenic call was “inactive; negative” (Test System: AMES SALMONELLA TYPHIMURIUM, Strain/Indicator: TA97, Metabolic Activation: HAMSTER, LIVER, S-9, AROCLOR 1254 (30%), Method: PREINCUBATION); “inactive; negative” (Test System: AMES SALMONELLA TYPHIMURIUM, Strain/Indicator: TA97, Metabolic Activation: NONE, Method: PREINCUBATION); “inactive; negative” (Test System: AMES SALMONELLA TYPHIMURIUM, Strain/Indicator: TA97, Metabolic Activation: RAT, LIVER, S-9, AROCLOR 1254 (30%), Method: PREINCUBATION); “inactive; negative” (Test System: AMES SALMONELLA TYPHIMURIUM, Strain/Indicator: TA98, Metabolic Activation: HAMSTER, LIVER, S-9, AROCLOR 1254 (30%), Method: PREINCUBATION); “inactive; negative” under setting [2]; “inactive; negative” (Test System: AMES SALMONELLA TYPHIMURIUM, Strain/Indicator: TA98, Metabolic Activation: RAT, LIVER, S-9, AROCLOR 1254 (30%), Method: PREINCUBATION). Also, the mutagenic call reads like this: (Test System: AMES SALMONELLA TYPHIMURIUM, Strain/Indicator: TA100, Metabolic Activation: HAMSTER, LIVER, S-9, AROCLOR 1254 (10%), Method: PREINCUBATION) “inactive; negative”; under setting [5], “inactive; negative”; (Test System: AMES SALMONELLA TYPHIMURIUM, Strain/Indicator: TA100, Metabolic Activation: RAT, LIVER, S-9, AROCLOR 1254 (30%), Method: PREINCUBATION) “inactive; negative”; (Test System: AMES SALMONELLA TYPHIMURIUM, Strain/Indicator: TA1535, Metabolic Activation: HAMSTER, LIVER, S-9, AROCLOR 1254 (10%), Method: PREINCUBATION) “inactive; negative”; (Test System: AMES SALMONELLA TYPHIMURIUM, Strain/Indicator: TA1535, Metabolic Activation: HAMSTER, LIVER, S-9, AROCLOR 1254 (30%), Method: PREINCUBATION) “inactive; negative”; under setting [8], “inactive; negative”. In addition, the mutagenic call is “inactive; negative” (Test System: AMES SALMONELLA TYPHIMURIUM, Strain/Indicator: TA1535, Metabolic Activation: RAT, LIVER, S-9, AROCLOR 1254 (30%), Method: PREINCUBATION); “inactive; negative” (Test System: AMES SALMONELLA TYPHIMURIUM, Strain/Indicator: TA1537, Metabolic Activation: HAMSTER, LIVER, S-9, AROCLOR 1254 (30%), Method: PREINCUBATION); “inactive; negative” under setting [11]; “inactive; negative” (Test System: AMES SALMONELLA TYPHIMURIUM, Strain/Indicator: TA1537, Metabolic Activation: RAT, LIVER, S-9, AROCLOR 1254 (30%), Method: PREINCUBATION).
Take `C[Si](C)(C)CN=[N+]=[N-]`: the mutagenic call is “inactive; negative” under setting [5] and “active; positive” (Test System: AMES SALMONELLA TYPHIMURIUM, Strain/Indicator: TA100, Metabolic Activation: RAT, LIVER, S-9, PCB, Method: PREINCUBATION).

The values are drawn from PubChem BioAssay AID1259407 (Chemical Carcinogenesis Research Information System (CCRIS), 2018).
